Assays:
false pimpernel [1] = assay: Test Example 1: herbicidal efficacy on rice paddy weeds pre-emergence; format: in vivo, Lindernia pyxidaria; conditions: dosage 1000 g/ha, 21 days
bulrush [2] = assay: Test Example 4: low dosage test for rice paddy weeds; format: in vivo, Scirpus juncoides; conditions: 300 g/ha as an active ingredient; plants treated at the one leaf stage; 21 days after treatment; vs untreated control
Outline: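 Compound applied as a formulation at 300 g/ha to one-leaf bulrush grown in flooded clay loam (5 cm water) in a hot house. After 21 days, growth inhibition versus untreated plants rated on a 0–4 scale, with 4 meaning 90–100%.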

false pimpernel [3] = assay: Test Example 2: herbicidal efficacy on rice paddy weeds post-emergence; format: in vivo, Lindernia pyxidaria; conditions: dosage 1000 g/ha; post-emergence, one leaf stage; 21 days after treatment
bulrush [4] = assay: as above; format: in vivo, Scirpus juncoides; conditions: dosage 1000 g/ha; post-emergence, one leaf stage; 21 days after treatment
[5] = tested on: transplanted paddy rice plant and Bulrush; assay: Test Example 5: selectivity between transplanted paddy rice plant and weeds; format: in vivo; conditions: (highest dosage with no phytotoxicity to paddy rice)/(lowest dosage with effective level 4 on Bulrush); rice 3000-100 g/ha, Bulrush 300-10 g/ha; 21 days
Outline: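 Scoring ran 21 days after treatment in a hothouse on a 0–4 scale (4 = 90–100%, 3 = 70–89%, 2 = 40–69%, 1 = 1–39%, 0 = none) relative to untreated plants. Post-emergence bulrush received 10, 30, 100 and 300 g/ha active ingredient. Transplanted rice received 100, 300, 1000 and 3000 g/ha to assess crop injury.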

barnyard glass = assay: Test Example 2: herbicidal efficacy on rice paddy weeds post-emergence; format: in vivo, Echinochloa crus-galli; conditions: dosage 1000 g/ha; post-emergence, one leaf stage; 21 days after treatment
Outline: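 Efficacy on paddy weeds was scored on a 0 to 4 growth-inhibition scale: 4 for 90%-100%, 3 for 70%-89%, 2 for 40%-69%, 1 for 1%-39% and 0 for 0%. Barnyard glass was grown in clay loam in 75 cm^2 pots under 5 cm of water in a hot house. It was compared with untreated pots 21 days after treatment.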

bulrush [6] = assay: Test Example 1: herbicidal efficacy on rice paddy weeds pre-emergence; format: in vivo, Scirpus juncoides; conditions: dosage 1000 g/ha, 21 days
[7] = tested on: paddy rice plant (cultivar: Nihonbare); assay: Test Example 3: phytotoxicity test for transplanted paddy rice plant; format: in vivo; conditions: dosage 1000 g/ha; transplanted rice, treated 5 days after transplantation; 21 days after treatment
Outline: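 Clay loam soil was placed in a 75 cm^2 plastic pot and flooded to a water depth of 5 cm. Two Nihonbare paddy rice plants at the two-leaf stage were transplanted 1 cm deep and grown in a hot house. After treatment, pots stayed in the hot house for 21 days, and phytotoxicity was then graded against an untreated control.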

Structure (SMILES)	False pimpernel pre (herbicidal efficacy grade) (false pimpernel [1])	Herbicide effect to Bulrush (bulrush [2])	False pimpernel post (herbicidal efficacy grade) (false pimpernel [3])	Bulrush post (herbicidal efficacy grade) (bulrush [4])	Selective Index [5]	Burnyard grass post (herbicidal efficacy grade) (barnyard glass)	melting point [°C]	Bulrush pre (herbicidal efficacy grade) (bulrush [6])	Phytotoxicity to paddy rice [7]
CC1(C)COC(=O)N1Cc1ccccc1NS(=O)(=O)C(F)(F)F [Compound No. 1-15, 4,4-dimethyl-3-[2-(trifluoromethanesulfonylamino)benzyl]-2-oxazolidinone]	4 (90%-100% of herbicidal efficacy or phytotoxicity)	4 (90%-100% of herbicidal efficacy or phytotoxicity)	4 (90%-100% of herbicidal efficacy or phytotoxicity)	4 (90%-100% of herbicidal efficacy or phytotoxicity)	10	4 (90%-100% of herbicidal efficacy or phytotoxicity)	134.9	4 (90%-100% of herbicidal efficacy or phytotoxicity)	1 (1%-39% of herbicidal efficacy or phytotoxicity)
CCC1CN(Cc2ccccc2N(C(=O)OCC(C)C)S(=O)(=O)C(F)(F)F)C(=O)O1 (stereo not drawn) [Compound No. 1-24, 5-ethyl-3-{2-[N-(isobutoxycarbonyl)-N-(trifluoromethanesulfonyl)amino]benzyl}-2-oxazolidinone]	4 (90%-100% of herbicidal efficacy or phytotoxicity)	4 (90%-100% of herbicidal efficacy or phytotoxicity)	4 (90%-100% of herbicidal efficacy or phytotoxicity)	4 (90%-100% of herbicidal efficacy or phytotoxicity)	33	4 (90%-100% of herbicidal efficacy or phytotoxicity)	85 to 87	4 (90%-100% of herbicidal efficacy or phytotoxicity)	0 (0% of herbicidal efficacy or phytotoxicity)
CC1CN(Cc2ccccc2NS(=O)(=O)C(F)(F)F)C(=S)O1 (stereo not drawn) [Compound No. 1-21, 5-methyl-3-[2-(trifluoromethanesulfonylamino)benzyl]-2-oxazolidinethione]	4 (90%-100% of herbicidal efficacy or phytotoxicity)	4 (90%-100% of herbicidal efficacy or phytotoxicity)	3 (70%-89% of herbicidal efficacy or phytotoxicity)	4 (90%-100% of herbicidal efficacy or phytotoxicity)	33	4 (90%-100% of herbicidal efficacy or phytotoxicity)	74 to 76	4 (90%-100% of herbicidal efficacy or phytotoxicity)	0 (0% of herbicidal efficacy or phytotoxicity)
CC1(C)CN(Cc2ccccc2NS(=O)(=O)C(F)(F)F)C(=O)S1 [Compound No. 1-184, 5,5-dimethyl-3-[2-(trifluoromethanesulfonylamino)benzyl]thiazolidin-2-one]	4 (90%-100% of herbicidal efficacy or phytotoxicity)	4 (90%-100% of herbicidal efficacy or phytotoxicity)	4 (90%-100% of herbicidal efficacy or phytotoxicity)	4 (90%-100% of herbicidal efficacy or phytotoxicity)	10	4 (90%-100% of herbicidal efficacy or phytotoxicity)	115 to 117.5	4 (90%-100% of herbicidal efficacy or phytotoxicity)	1 (1%-39% of herbicidal efficacy or phytotoxicity)
CC(C)COC(=O)N(c1ccccc1CN1C(=O)OCC1(C)C)S(=O)(=O)C(F)(F)F [Compound No. 1-16, 4,4-dimethyl-3-{2-[N-(isobutoxycarbonyl)-N-(trifluoromethanesulfonyl)amino]benzyl}-2-oxazolidinone]	4 (90%-100% of herbicidal efficacy or phytotoxicity)	4 (90%-100% of herbicidal efficacy or phytotoxicity)	4 (90%-100% of herbicidal efficacy or phytotoxicity)	4 (90%-100% of herbicidal efficacy or phytotoxicity)	33	4 (90%-100% of herbicidal efficacy or phytotoxicity)	65 to 65.8	4 (90%-100% of herbicidal efficacy or phytotoxicity)	0 (0% of herbicidal efficacy or phytotoxicity)
